According to the Kinase Knowledgebase extract (Sharma et al. 2016):

Biological target: ROCK2 (human) (UniProt O75116)
Assay: Inhibition of ROCK2 Kinase Activity

ROCK2 (human), sequence (O75116 whole entry, looked up): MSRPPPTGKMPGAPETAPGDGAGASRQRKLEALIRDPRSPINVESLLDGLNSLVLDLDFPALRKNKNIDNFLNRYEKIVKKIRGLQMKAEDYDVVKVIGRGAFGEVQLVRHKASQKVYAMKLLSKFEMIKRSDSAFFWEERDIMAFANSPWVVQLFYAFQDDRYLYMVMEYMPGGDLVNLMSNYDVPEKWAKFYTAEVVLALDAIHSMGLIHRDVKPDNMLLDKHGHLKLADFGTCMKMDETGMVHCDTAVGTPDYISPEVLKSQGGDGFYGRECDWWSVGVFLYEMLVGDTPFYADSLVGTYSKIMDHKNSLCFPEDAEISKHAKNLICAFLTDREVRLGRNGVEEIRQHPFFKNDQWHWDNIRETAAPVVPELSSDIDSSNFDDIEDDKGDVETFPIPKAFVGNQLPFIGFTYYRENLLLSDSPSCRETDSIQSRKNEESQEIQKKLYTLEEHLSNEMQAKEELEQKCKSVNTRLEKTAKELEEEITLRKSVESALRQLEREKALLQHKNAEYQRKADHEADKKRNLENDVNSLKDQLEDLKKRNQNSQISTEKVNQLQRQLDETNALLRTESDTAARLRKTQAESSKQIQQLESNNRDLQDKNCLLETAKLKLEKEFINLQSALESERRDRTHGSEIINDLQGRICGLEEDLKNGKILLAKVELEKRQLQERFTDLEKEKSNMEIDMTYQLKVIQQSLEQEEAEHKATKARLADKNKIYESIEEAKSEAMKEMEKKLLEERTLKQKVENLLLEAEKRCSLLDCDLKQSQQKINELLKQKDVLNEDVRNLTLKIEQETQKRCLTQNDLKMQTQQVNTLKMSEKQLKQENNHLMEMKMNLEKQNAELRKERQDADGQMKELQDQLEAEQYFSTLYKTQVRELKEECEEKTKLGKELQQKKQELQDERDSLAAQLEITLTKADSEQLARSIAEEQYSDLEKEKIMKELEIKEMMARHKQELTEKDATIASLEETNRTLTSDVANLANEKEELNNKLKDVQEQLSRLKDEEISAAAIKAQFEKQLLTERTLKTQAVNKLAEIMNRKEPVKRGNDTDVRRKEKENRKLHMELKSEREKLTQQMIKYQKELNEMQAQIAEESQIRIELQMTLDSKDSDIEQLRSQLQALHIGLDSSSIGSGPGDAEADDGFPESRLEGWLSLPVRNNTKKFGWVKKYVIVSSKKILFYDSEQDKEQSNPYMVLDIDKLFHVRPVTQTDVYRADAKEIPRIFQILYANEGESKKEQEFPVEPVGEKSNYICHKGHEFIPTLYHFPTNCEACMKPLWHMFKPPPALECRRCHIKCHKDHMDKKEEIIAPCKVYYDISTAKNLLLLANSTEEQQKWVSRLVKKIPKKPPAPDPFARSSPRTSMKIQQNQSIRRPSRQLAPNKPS

IC50	Structure (SMILES)
> 5 µM	CCCCc1ccc(C(=O)NCc2nc(-c3c[nH]c4ncccc34)n[nH]2)cc1
> 5 µM	CC(C)(C)OC(=O)NC(Cc1ccccc1)C(=O)NCc1nc(-c2c[nH]c3ncccc23)n[nH]1 (configuration not stated)
> 5 µM	CC(C)Oc1ccc(C(=O)NCc2nc(-c3c[nH]c4ncccc34)n[nH]2)cc1
> 5 µM	O=Cc1ccccc1OCC(=O)NCc1nc(-c2ccncc2)n[nH]1
> 5 µM	O=C(C=Cc1ccccc1C(F)(F)F)NCc1nc(-c2ccncc2)n[nH]1
> 5 µM	CC(C(=O)NCc1nc(-c2ccncc2)n[nH]1)c1ccc(O)cc1 (configuration not stated)
> 5 µM	CCOc1ccccc1C(=O)NCc1nc(-c2c[nH]c3ncccc23)n[nH]1
> 5 µM	O=C(NCc1nc(-c2ccncc2)n[nH]1)c1cc(O)c(O)c(O)c1
> 5 µM	Cc1ccc(C(=O)NCc2nc(-c3ccncc3)n[nH]2)cc1
> 5 µM	O=C(NCc1nc(-c2ccncc2)n[nH]1)c1cc(F)c(F)cc1Cl
> 5 µM	O=C(Cc1ccccc1O)NCc1nc(-c2ccncc2)n[nH]1
≤ 5 µM	O=C(NCc1nc(-c2ccncc2)n[nH]1)c1cccc2cc[nH]c12
> 5 µM	CC(C)(C)OC(=O)N1CCCC1C(=O)NCc1nc(-c2c[nH]c3ncccc23)n[nH]1 (configuration not stated)
> 5 µM	NC1CCN(C(=O)Cc2nc(-c3ccncc3)n[nH]2)C1 (configuration not stated)
> 5 µM	O=C(NCc1nc(-c2ccncc2)n[nH]1)c1ccc2ncccc2c1
> 5 µM	COc1cc(C=CC(=O)NCc2nc(-c3c[nH]c4ncccc34)n[nH]2)ccc1O
> 5 µM	O=C(NCc1nc(-c2c[nH]c3ncccc23)n[nH]1)c1ccccn1
> 5 µM	O=C(NCc1nc(-c2c[nH]c3ncccc23)n[nH]1)c1cc(Br)ccc1Cl
> 5 µM	COc1cc(C(=O)NCc2nc(-c3c[nH]c4ncccc34)n[nH]2)cc(OC)c1OC
> 5 µM	O=C(NCc1nc(-c2c[nH]c3ncccc23)n[nH]1)c1cc(Cl)ccn1
> 5 µM	CC(C(=O)NCc1nc(-c2c[nH]c3ncccc23)n[nH]1)c1ccc(-c2ccccc2)c(F)c1 (configuration not stated)
> 5 µM	O=C(NCc1nc(-c2c[nH]c3ncccc23)n[nH]1)c1ccc(Cl)cc1[N+](=O)[O-]

IC50	Structure (SMILES)
≤ 5 µM	Cc1cccc(C(=O)NCc2cc(-c3ccncc3)n[nH]2)c1O
> 5 µM	N#Cc1cccc(C(=O)NCc2nc(-c3c[nH]c4ncccc34)n[nH]2)c1
> 5 µM	CC(C)Cc1ccc(C(C)C(=O)NCc2nc(-c3ccncc3)n[nH]2)cc1 (configuration not stated)
> 5 µM	O=Cc1ccccc1C(=O)NCc1nc(-c2c[nH]c3ncccc23)n[nH]1
> 5 µM	Cc1cccc(C(=O)NCc2nc(-c3ccncc3)n[nH]2)c1[N+](=O)[O-]
> 5 µM	CC(C)(C)OC(=O)N1CC(O)CC1C(=O)NCc1nc(-c2c[nH]c3ncccc23)n[nH]1 (configuration not stated)
> 5 µM	O=C(NCc1nc(-c2ccncc2)n[nH]1)c1ccnc(Cl)c1
> 5 µM	CC(C(=O)NCc1nc(-c2c[nH]c3ncccc23)n[nH]1)c1cccc(C(=O)OCc2ccccc2)c1 (configuration not stated)
> 5 µM	O=C(NCc1nc(-c2c[nH]c3ncccc23)n[nH]1)c1ccc(C(F)(F)F)cc1[N+](=O)[O-]
> 5 µM	O=C(NCc1nc(-c2c[nH]c3ncccc23)n[nH]1)c1cc(Cl)ccc1O
> 5 µM	O=C(NCc1nc(-c2ccncc2)n[nH]1)c1c(F)cccc1F
> 5 µM	Cc1ccc(SCC(=O)NCc2nc(-c3ccncc3)n[nH]2)cc1
> 5 µM	Cc1ccc(C)c(C(=O)NCc2nc(-c3ccncc3)n[nH]2)c1
> 5 µM	O=C(NCc1nc(-c2c[nH]c3ncccc23)n[nH]1)c1ccc(F)cc1F
> 5 µM	O=C(Cc1ccc(Br)cc1)NCc1nc(-c2c[nH]c3ncccc23)n[nH]1
> 5 µM	O=C(NCc1nc(-c2c[nH]c3ncccc23)n[nH]1)c1ccc(Cl)c(Br)c1
> 5 µM	O=C(NCc1nc(-c2ccncc2)n[nH]1)c1c(F)c(F)c(F)c(F)c1F
> 5 µM	O=C(NCc1nc(-c2c[nH]c3ncccc23)n[nH]1)c1ccc2ccccc2c1O
> 5 µM	O=C(NCc1nc(-c2ccncc2)n[nH]1)c1ccccc1[N+](=O)[O-]
> 5 µM	O=C(NCc1nc(-c2ccncc2)n[nH]1)c1cccc(O)c1O
> 5 µM	CC(=O)Nc1cccc(C(=O)NCc2nc(-c3c[nH]c4ncccc34)n[nH]2)c1
> 5 µM	O=C(NCc1nc(-c2c[nH]c3ncccc23)n[nH]1)c1cccc(Br)n1

IC50	Structure (SMILES)
> 5 µM	Cc1cccc(C(=O)NCc2nc(-c3c[nH]c4ncccc34)n[nH]2)c1O
> 5 µM	O=C(Cc1ccc(O)c(Cl)c1)NCc1nc(-c2c[nH]c3ncccc23)n[nH]1
> 5 µM	COc1ccc([N+](=O)[O-])c(C(=O)NCc2nc(-c3ccncc3)n[nH]2)c1
> 5 µM	COc1ccc(C(=O)NCc2nc(-c3c[nH]c4ncccc34)n[nH]2)cc1
> 5 µM	O=C(NCc1nc(-c2c[nH]c3ncccc23)n[nH]1)c1ccc(Cl)cc1O
> 5 µM	CC(C)(C)OC(=O)NC(Cc1ccccc1)C(=O)NCc1nc(-c2ccncc2)n[nH]1 (configuration not stated)
≤ 5 µM	O=C(NCc1nnc(-c2ccnc3[nH]ccc23)o1)c1ccc(O)cc1O
> 5 µM	Cc1ccc(O)c(C(=O)NCc2nc(-c3c[nH]c4ncccc34)n[nH]2)c1
> 5 µM	O=C(NCc1nc(-c2c[nH]c3ncccc23)n[nH]1)c1cccc(F)c1
> 5 µM	O=C(NCc1nc(-c2c[nH]c3ncccc23)n[nH]1)c1ccc2ncccc2c1
> 5 µM	CC(NC(=O)OC(C)(C)C)C(=O)NCc1nc(-c2ccncc2)n[nH]1 (configuration not stated)
> 5 µM	O=C(NCc1nc(-c2c[nH]c3ncccc23)n[nH]1)c1c(O)ccc2ccccc12
≤ 5 µM	CC(C)c1cccc(C(=O)NCc2nc(-c3ccncc3)n[nH]2)c1O
≤ 5 µM	Cc1cc(C(=O)NCc2nc(-c3ccncc3)n[nH]2)ccc1O
> 5 µM	CC(CC(=O)NCc1nc(-c2c[nH]c3ncccc23)n[nH]1)CC(C)(C)C (configuration not stated)
> 5 µM	O=C(Cc1ccc(Br)cc1)NCc1nc(-c2ccncc2)n[nH]1
> 5 µM	O=C(NCc1nc(-c2ccncc2)n[nH]1)c1ccc([N+](=O)[O-])cc1Cl
> 5 µM	CCCCc1ccc(C(=O)NCc2nc(-c3ccncc3)n[nH]2)cc1
> 5 µM	O=C(NCc1nc(-c2ccncc2)n[nH]1)c1cccc(F)c1
> 5 µM	O=C(NCc1nc(-c2c[nH]c3ncccc23)n[nH]1)c1ccccc1Cc1ccccc1
> 5 µM	O=C(NCc1nc(-c2c[nH]c3ncccc23)n[nH]1)c1cc([N+](=O)[O-])ccc1Cl
> 5 µM	O=C(NCc1nc(-c2c[nH]c3ncccc23)n[nH]1)c1cccc(Cl)c1[N+](=O)[O-]

IC50	Structure (SMILES)
> 5 µM	O=C(NCc1nc(-c2c[nH]c3ncccc23)n[nH]1)c1cc2ccccc2cc1O
> 5 µM	O=C(NCc1nc(-c2c[nH]c3ncccc23)n[nH]1)c1cc(F)ccc1[N+](=O)[O-]
> 5 µM	O=C(NCc1nc(-c2c[nH]c3ncccc23)n[nH]1)c1ccc(F)cc1
> 5 µM	O=C(NCc1nc(-c2c[nH]c3ncccc23)n[nH]1)C(Cl)(Cl)Cl
≤ 5 µM	Cc1c(O)ccc(C(=O)NCc2nc(-c3ccncc3)n[nH]2)c1O
> 5 µM	Cc1cc(C)cc(C(=O)NCc2nc(-c3c[nH]c4ncccc34)n[nH]2)c1
> 5 µM	COc1ccc(Cl)cc1C(=O)NCc1nc(-c2ccncc2)n[nH]1
> 5 µM	O=C(NCc1nc(-c2ccncc2)n[nH]1)c1cc(O)ccc1[N+](=O)[O-]
> 5 µM	O=C(CCc1cccc(Br)c1)NCc1nc(-c2ccncc2)n[nH]1
> 5 µM	O=S(=O)(NCc1nc(-c2ccncc2)n[nH]1)c1ccc(OCc2ccccc2)cc1
> 5 µM	O=C(NCc1nc(-c2ccncc2)n[nH]1)c1cccc(Br)c1
> 5 µM	Cc1c(C(=O)NCc2nc(-c3ccncc3)n[nH]2)oc2ccccc12
> 5 µM	Cc1ccc(C(=O)NCc2nc(-c3c[nH]c4ncccc34)n[nH]2)cc1C
> 5 µM	CC(CC(=O)NCc1nc(-c2ccncc2)n[nH]1)CC(C)(C)C (configuration not stated)
> 5 µM	O=C(NCc1nc(-c2ccncc2)n[nH]1)c1cc(Cl)ccn1
> 5 µM	O=C(NCc1nc(-c2ccncc2)n[nH]1)c1cscn1
≤ 5 µM	O=C(NCc1nc(-c2ccncc2)n[nH]1)c1cc2ccccc2cc1O
> 5 µM	O=C(NCc1nc(-c2c[nH]c3ncccc23)n[nH]1)c1ccccc1O
> 5 µM	COc1ccc2cc(C(C)C(=O)NCc3nc(-c4ccncc4)n[nH]3)ccc2c1 (configuration not stated)
> 5 µM	COc1cc(Cl)ccc1C(=O)NCc1nc(-c2c[nH]c3ncccc23)n[nH]1
≤ 5 µM	CC(=O)c1ccc(C(=O)NCc2nc(-c3ccncc3)n[nH]2)cc1
> 5 µM	O=C(NCc1nc(-c2c[nH]c3ncccc23)n[nH]1)c1ccc2c(c1)OCO2

IC50	Structure (SMILES)
> 5 µM	O=C(Cc1ccc(C(F)(F)F)cc1)NCc1nc(-c2ccncc2)n[nH]1
≤ 5 µM	O=C(NCc1nc(-c2ccncc2)n[nH]1)c1cccc(Cl)c1O
> 5 µM	O=C(C=Cc1ccccc1Cl)NCc1nc(-c2c[nH]c3ncccc23)n[nH]1
> 5 µM	O=C(NCc1nc(-c2ccncc2)n[nH]1)c1cc(F)ccc1[N+](=O)[O-]
> 5 µM	O=C(NCc1nc(-c2ccncc2)n[nH]1)c1cc(F)c(F)c(O)c1F
> 5 µM	CCN(CC)c1ccc(C(=O)NCc2nc(-c3c[nH]c4ncccc34)n[nH]2)cc1
> 5 µM	CCOc1ccc2ccccc2c1C(=O)NCc1nc(-c2ccncc2)n[nH]1
> 5 µM	CC(C(=O)NCc1nc(-c2ccncc2)n[nH]1)c1cccc(C(=O)c2ccccc2)c1 (configuration not stated)
> 5 µM	Cc1ccc([N+](=O)[O-])c(C(=O)NCc2nc(-c3c[nH]c4ncccc34)n[nH]2)c1
> 5 µM	CCCCCCCC(=O)NCc1nc(-c2c[nH]c3ncccc23)n[nH]1
> 5 µM	COc1cc(C(=O)NCc2nc(-c3ccncc3)n[nH]2)c([N+](=O)[O-])cc1OC
> 5 µM	Cc1cc(C)cc(C(=O)NCc2nc(-c3ccncc3)n[nH]2)c1
> 5 µM	O=C(NCc1nc(-c2ccncc2)n[nH]1)c1c(Cl)cc(Cl)cc1Cl
> 5 µM	CCCOc1ccc(C(=O)NCc2nc(-c3ccncc3)n[nH]2)cc1
> 5 µM	Cc1ccccc1C(=O)NCc1nc(-c2ccncc2)n[nH]1
> 5 µM	c1ccc(COc2ccc(CNCc3nc(-c4ccncc4)n[nH]3)cc2)cc1
≤ 5 µM	Cc1ccc(C(=O)NCc2nc(-c3ccncc3)n[nH]2)c(O)c1
> 5 µM	O=Cc1ccc(C(=O)NCc2nc(-c3ccncc3)n[nH]2)cc1
> 5 µM	CC(=O)NCC(=O)NCc1nc(-c2c[nH]c3ncccc23)n[nH]1
